Assay results taken from the supplement of paper PMC10307832.

What was measured:
Assay in all cases: relative viability (nuclei count vs DMSO), 5 days (fraction); higher = more cells survive
Pazopanib + Pemetrexed = compound: Cc1ccc(Nc2nccc(N(C)c3ccc4c(C)n(C)nc4c3)n2)cc1S(N)(=O)=O [Pazopanib] + Nc1nc2[nH]cc(CCc3ccc(C(=O)N[C@@H](CCC(=O)O)C(=O)O)cc3)c2c(=O)[nH]1 [Pemetrexed] (partner 0.2 µM)
Procedure, shortened: (§1)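 Dosing by pin tool came one day after lung cancer cell lines were seeded in 1536-well plates, using either one drug or a fixed anchor-drug dose plus five library-drug doses (not always all listed) in √10 steps. After 5 days, nuclei were counted on 4× images. Relative viability is treated-well nuclei count divided by vehicle-well nuclei count, and values are medians of duplicate plates.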

Ponatinib + Tozasertib = compound: Cc1ccc(C(=O)Nc2ccc(CN3CCN(C)CC3)c(C(F)(F)F)c2)cc1C#Cc1cnc2cccnn12 [Ponatinib] + Cc1cc(Nc2cc(N3CCN(C)CC3)nc(Sc3ccc(NC(=O)C4CC4)cc3)n2)n[nH]1 [Tozasertib] (partner 0.1 µM)
Procedure, shortened: as §1

Pazopanib + Dasatinib = compound: Cc1ccc(Nc2nccc(N(C)c3ccc4c(C)n(C)nc4c3)n2)cc1S(N)(=O)=O [Pazopanib] + Cc1nc(Nc2ncc(C(=O)Nc3c(C)cccc3Cl)s2)cc(N2CCN(CCO)CC2)n1 [Dasatinib] (partner 0.075 µM)
Procedure, shortened: as §1

Pazopanib + OSI-027 = compound: Cc1ccc(Nc2nccc(N(C)c3ccc4c(C)n(C)nc4c3)n2)cc1S(N)(=O)=O [Pazopanib] + COc1cccc2cc(-c3nc([C@H]4CC[C@H](C(=O)O)CC4)n4ncnc(N)c34)[nH]c12 [OSI-027] (partner 0.5 µM)
Procedure, shortened: as §1

UMC-11
relative viability (Pazopanib + Pemetrexed; first compound 0.01 µM): 0.743 | relative viability (Pazopanib + Pemetrexed; first compound 0.03162 µM): 0.908 | relative viability (Pazopanib + Pemetrexed; first compound 0.1 µM): 0.871 | relative viability (Pazopanib + Pemetrexed; first compound 0.3162 µM): 0.701 | relative viability (Pazopanib + Pemetrexed; first compound 1 µM): 0.844 | relative viability (Ponatinib + Tozasertib; first compound 0.002 µM): 0.193 | relative viability (Ponatinib + Tozasertib; first compound 0.006325 µM): 0.223 | relative viability (Ponatinib + Tozasertib; first compound 0.06325 µM): 0.209 | relative viability (Ponatinib + Tozasertib; first compound 0.2 µM): 0.217 | relative viability (Pazopanib + Dasatinib; first compound 0.01 µM): 0.455 | relative viability (Pazopanib + Dasatinib; first compound 0.03162 µM): 0.459 | relative viability (Pazopanib + Dasatinib; first compound 0.1 µM): 0.568 | relative viability (Pazopanib + Dasatinib; first compound 0.3162 µM): 0.467 | relative viability (Pazopanib + Dasatinib; first compound 1 µM): 0.432 | relative viability (Pazopanib + OSI-027; first compound 0.01 µM): 0.501 | relative viability (Pazopanib + OSI-027; first compound 0.03162 µM): 0.544 | relative viability (Pazopanib + OSI-027; first compound 0.1 µM): 0.442 | relative viability (Pazopanib + OSI-027; first compound 0.3162 µM): 0.504 | relative viability (Pazopanib + OSI-027; first compound 1 µM): 0.541
